Data as given in patent US20120264159A1, “SCREENING SYSTEM FOR MODULATORS OF HER2 MEDIATED TRANSCRIPTION AND HER2 MODULATORS IDENTIFED THEREBY” (BUCK INSTITUTE FOR AGE RESEARCH, priority 2001, published 2012).
Entries after “also recorded” stand apart in the source; their conditions may differ.

Key:
ErbB2 transcript = experiment: Northern blot of ErbB2 transcript levels in ErbB2 overexpressing breast cancer cells; assay type: cell-based, human
Description: The conserved and singular DNase I hypersensitivity sites found in the proximal ErbB2 and ESX promoters (12,15) were assayed as before (12). Briefly, following culture treatment of cells, nuclei isolated by mild detergent lysis in a buffer containing 10 mM Hepes pH 7.9, 1.5 mM MgCl2, 10 mM KCl, 0.4% NP-40, 10% glycerol and 1 mM DTT. Partial DNase I digestions were carried out by varying DNase I treatment times (0-15 minutes at 37( ) at a fixed DNase I concentrations (0.5-1.0 units per 10^6 nuclei). After purifying and restricting the DNA, it was electrophoresed through 0.7% agarose gels and blotted onto nylon membranes, UV-crosslinked and hybridized with randomly ^32P-labelled ErbB2 and ESX promoter probes, as similarly performed for routine Southern blotting. For Northern blotting, total (treated vs. control) cell RNA (10 μg/sample lane) was isolated using TRIzol (Invitrogen) according to manufacturer's specifications, electrophoresed into 1% agarose-formaldehyde gels and transferred onto membranes that were then hybridized with ^32P-labelled ErbB2 and ESX cDNA probes. For transcriptional run-off assays cell nuclei were first isolated from treated and control cells as described for the DNase I studies. Elongatation of initiated nascent RNA chains was performed at 37 (C for 30 minutes using ˜5×10^6 nuclei per reaction in a buffer containing 10 mM Tris pH7.5, 2.5 mM MgCl2, 150 mM KCl, 1 mM DTT, 10% glycerol, 0.5 mM ATP, GTP and CTP, and 100 μCi of [α-^32P]UTP (800 Ci/mmol). Nuclear RNA was purified by the addition of 100 units of RNase-free DNase I (Roche) per reaction for 2 minutes followed by TRIzol processing. Radiolabelled RNA was hybridized (˜4×10^6 cpm) at 68 (C in ExpressHyb (Clontech) for 24 hours to nylon filter membranes previously slotted with 0.5 μg per slot of unlabelled ErbB2 cDNA fragments (from either the transmembrane or C-terminal domains), ESX cDNA fragments, and empty plasmid control, as we have previously described (16). Filters were washed at 64 (C in 0.2 SSC and 0.5% SDS. For Western blotting, whole-cell extracts from control vs. treated cells were boiled in sample loading buffer (1% SDS, 20% glycerol, 100 mM DTT, 50 mM Tris, pH 6.8), gel lanes loaded for constant total protein (15 μg), electrophoresed into 9% sodium dodecyl sulfacte polyacrylamide (SDS-PAGE) gels, transferred onto membranes (Immobilon-P, Millipore), and the protein-bound membranes hybridized with a primary antibody followed by a horseradish peroxidase-conjugated secondary antibody (Sigma), and specific protein bands visualized by chemiluminescent substrate (Pierce), as previously described (10).

[1] = system: ErbB2 transcript synthesis; experiment: Nuclear run-off assay of ErbB2 transcript synthesis in SKBR3 cells; assay type: cell-based, human; conditions: 5 hours, 0.4 μM TSA
Description: The conserved and singular DNase I hypersensitivity sites found in the proximal ErbB2 and ESX promoters (12,15) were assayed as before (12). Briefly, following culture treatment of cells, nuclei isolated by mild detergent lysis in a buffer containing 10 mM Hepes pH 7.9, 1.5 mM MgCl2, 10 mM KCl, 0.4% NP-40, 10% glycerol and 1 mM DTT. […]
Nuclear run-off experiments were performed on ErbB2 overexpressing breast cancer cells to confirm the conclusion drawn from TSA induced downregulation of luciferase expression in MCF/R06pGL-9 cells that HDAC inhibitors can suppress ErbB2 promoter activity and presumably also repress ErbB2 transcription. […] Slot blot hybridization stringency was adjusted so that no signal could be detected from those control slots containing the empty plasmid.

[2] = system: ErbB2 and ESX promoter hypersensitive loci; experiment: DNase I hypersensitivity analysis of ErbB2 and ESX promoters; assay type: cell-based, human; conditions: SKBR3 cells, 24 hour, 0.4 μM TSA
Description: The conserved and singular DNase I hypersensitivity sites found in the proximal ErbB2 and ESX promoters (12,15) were assayed as before (12). Briefly, following culture treatment of cells, nuclei isolated by mild detergent lysis in a buffer containing 10 mM Hepes pH 7.9, 1.5 mM MgCl2, 10 mM KCl, 0.4% NP-40, 10% glycerol and 1 mM DTT. Partial DNase I digestions were carried out by varying DNase I treatment times (0-15 minutes at 37( ) at a fixed DNase I concentrations (0.5-1.0 units per 10^6 nuclei). After purifying and restricting the DNA, it was electrophoresed through 0.7% agarose gels and blotted onto nylon membranes, UV-crosslinked and hybridized with randomly ^32P-labelled ErbB2 and ESX promoter probes, as similarly performed for routine Southern blotting. For Northern blotting, total (treated vs. control) cell RNA (10 μg/sample lane) was isolated using TRIzol (Invitrogen) according to manufacturer's specifications, electrophoresed into 1% agarose-formaldehyde gels and transferred onto membranes that were then hybridized with ^32P-labelled ErbB2 and ESX cDNA probes. For transcriptional run-off assays cell nuclei were first isolated from treated and control cells as described for the DNase I studies. […]

ErbB2 promoter = experiment: Genomically integrated ErbB2 promoter-luciferase reporter screen in MCF/R06pGL-9 cells; assay type: cell-based, human; conditions: 24 h treatment
Description: Reporter activity was assayed as follows: From T-150 or T-75 culture flasks, about […] cells/well were plated into a 96 well plate format for high-throughput screening. 24 hours post plating a test agent e.g. a drug from a combinatorial library, was added to the wells at various concentrations. Certain wells were used as controls (e.g. PBS or DMSO vehicle only). Replicate wells ([…] per drug concentration) were run. 24 hours after addition of the test agent the cells were lysed, a luciferase reagent was added and activity in each well was read using a high-throughput screening plate reader (labsystems Fluoroskan). Parallel plates were run for cell viability using an MTT assay (Sigma).
A luciferase reporter plasmid (designated RO6pGL-luc) was constructed by inserting the ˜500 bp SmaI-SmaI fragment of the human ErbB2 proximal promoter (12) into the pGL3Basic plasmid driving a luciferase reporter gene, as has been described (10). R06pGL-luc and a plasmid expressing neomycin phosphotransferase were co-transfected into the MCF-7 cells (ATCC) using Effectene (Qiagen). Cells were selected for stable expression of luciferase and neomycin (G418)-resistance. […] The reaction was quantified by absorbance at 570 nm measured with a microplate reader (Molecular Devices) and the mean (±SD) optical density recorded after normalization by the vehicle treated controls. […]

[3] = system: NCI panel of 60 human cancer cell lines; conditions: NCI/DTP screen, 60 human cancer cell line panel; read-out: median cytotoxic concentration (LC50); cited from earlier work
MCF/R06pGL-9 cells = experiment: MTT cell viability assay on MCF/R06pGL-9 cells; assay type: cell-based, human
From the text: A luciferase reporter plasmid (designated RO6pGL-luc) was constructed by inserting the ˜500 bp SmaI-SmaI fragment of the human ErbB2 proximal promoter (12) into the pGL3Basic plasmid driving a luciferase reporter gene, as has been described (10). R06pGL-luc and a plasmid expressing neomycin phosphotransferase were co-transfected into the MCF-7 cells (ATCC) using Effectene (Qiagen). Cells were selected for stable expression of luciferase and neomycin (G418)-resistance. Single cell clones including MCF/R06pGL-9 were isolated and maintained in DME H-16 medium supplemented with 10% fetal bovine serum, 10 μg/ml insulin, 100 μg/ml penicillin/streptomycin, and 500 μg/ml G418. MTT cell viability and luciferase expression assays on the MCF/RO6pGL-9 sublime were performed after plating the subline into 96-well culture dishes at a density of 10^4 cells/well in 100 μL medium. After 24 hour cell plating, TSA from stock DMSO solution was diluted into 100 μL medium and then added into eight replicate wells at the indicated concentrations. […] The reaction was quantified by absorbance at 570 nm measured with a microplate reader (Molecular Devices) and the mean (±SD) optical density recorded after normalization by the vehicle treated controls. […]

Structure (SMILES): CC(/C=C/C(=O)NO)=C\[C@@H](C)C(=O)c1ccc(N(C)C)cc1 [TSA, trichostatin A]
- ErbB2 transcript levels relative to control (ErbB2 transcript; 8 hour TSA treatment, Northern assays (data not shown)): < 20 % of control
- ErbB2 transcript levels (ErbB2 transcript; MDA-453 and BT-474 cells, similar TSA treatment (data not shown)): Virtually complete elimination of ErbB2 transcript levels
- ErbB2 mRNA level / decay (ErbB2 transcript; SKBR3 cells, 5 hours treatment, TSA 0.05 or 0.40 μM, Act D 10 μg/ml): greatly enhanced the rate of ErbB2 mRNA decay
- ErbB2 transcript levels (ErbB2 transcript; SKBR3 cells, 24 hours, 0.4 μM TSA): near total disappearance of ErbB2 transcripts
- synthesis of new ErbB2 transcripts [1]: profoundly suppresses synthesis of new ErbB2 transcripts
- DNase I hypersensitivity of ErbB2 and ESX promoter loci [2]: lack of any TSA treatment effects on the hypersensitive loci
- ErbB2 promoter-reporter (luciferase) activity (ErbB2 promoter): significantly represses; also recorded: significant reduction of luciferase activity
- CC50 [3]: > 10 µM
- cell viability (MTT assay) (MCF/R06pGL-9 cells; 24 hours exposure, TSA concentrations up to 50 μM): little impact on cell viability
- cell viability (MTT assay) (MCF/R06pGL-9 cells; dose <1 μM, within 24 h): does not impair cell viability
